Reference: US7728016B2, “Substituted 5-membered ring compounds and their use” (Vernalis (Cambridge) Limited, priority 2003, dated 2010)

Molecular target: T1, human full-length HSP90 (Homo sapiens, UniProt P08238)
T1 construct: E. coli expressed human full-length HSP90 protein; made in house; host or cells: E. coli
Test: Fluorescence polarization assay (competitive displacement of probe RBT0045864-FAM from HSP90)
Type: binding
Details: fluorescence polarisation assay, E. coli expressed human full-length HSP90, probe 80 nM
Text: A fluorescence polarization assay was employed for the evaluation of some of the compounds of the Examples:
Fluorescence Polarization Assay
Fluorescence polarization {also known as fluorescence anisotropy} measures the rotation of a fluorescing species in solution, where the larger molecule the more polarized the fluorescence emission. When the fluorophore is excited with polarized light, the emitted light is also polarized. The molecular size is proportional to the polarization of the fluorescence emission.
The fluoroscein-labelled probe—RBT0045864-FAM—
[drawing 25] binds to HSP90 {full-length human, full-length yeast or N-terminal domain HSP90} and the anisotropy {rotation of the probe:protein complex} is measured.
Test compound is added to the assay plate, left to equilibrate and the anisotropy measured again. Any change in anisotropy is due to competitive binding of compound to HSP90, thereby releasing probe.
Chemicals are of the highest purity commercially available and all aqueous solutions are made up in AR water. • 1) Costar 96-well black assay plate #3915 • 2) Assay buffer of (a)100 mM Tris pH7.4; (b) 20 mM KCl; (c) 6 mM MgCl2. Stored at room temperature. • 3) BSA (bovine serum albumen) 10 mg/ml (New England Biolabs #B9001S) • 4) 20 mM probe in 100% DMSO stock concentration. Stored in the dark at RT. Working concentration is 200 nM diluted in AR water and stored at 4° C. Final concentration in assay 80 nM. • 5) E. coli expressed human full-length HSP90 protein, purified >95% (see, e.g., Panaretou et al., 1998) and stored in 50 μL aliquots at −80° C. Protocol • 1) Add 100 μl 1× buffer to wells 11A and 12A (=FP BLNK) • 2) Prepare assay mix—all reagents are kept on ice with a lid on the bucket as the probe is light-sensitive.
• 3) Aliquot 100 μl assay mix to all other wells • 4) Seal plate and leave in dark at room temp for 20 minutes to equilibrate Compound Dilution Plate—1×3 Dilution Series • 1) In a clear 96-well v-bottom plate—{#VWR 007/008/257} add 10 μl 100% DMSO to wells B1 to H11 • 2) To wells A1 to A11 add 17.5 μl 100% DMSO • 3) Add 2.5 μl cpd to A1. This gives 2.5 mM {50×} stock cpd—assuming cpds 20 mM. • 4) Repeat for wells A2 to A10. Control in columns 11 and 12. • 5) Transfer 5 μl from row A to row B—not column 12. Mix well. • 6) Transfer 5 μl from row B to row C. […] In column 11 {provides standard curve} only add compound B11-H11. Add 2 μl of 100 mM standard cpd to wells B12-H12 {is positive control} • 13) The Z′ factor is calculated from zero controls and positive wells. It typically gives a value of 0.7-0.9.
The compounds tested in the above assay were assigned to one of two activity ranges, namely A=<10 μM; B=>10 μM, and those assignments are reported above.

T1 sequence (P08238 whole entry): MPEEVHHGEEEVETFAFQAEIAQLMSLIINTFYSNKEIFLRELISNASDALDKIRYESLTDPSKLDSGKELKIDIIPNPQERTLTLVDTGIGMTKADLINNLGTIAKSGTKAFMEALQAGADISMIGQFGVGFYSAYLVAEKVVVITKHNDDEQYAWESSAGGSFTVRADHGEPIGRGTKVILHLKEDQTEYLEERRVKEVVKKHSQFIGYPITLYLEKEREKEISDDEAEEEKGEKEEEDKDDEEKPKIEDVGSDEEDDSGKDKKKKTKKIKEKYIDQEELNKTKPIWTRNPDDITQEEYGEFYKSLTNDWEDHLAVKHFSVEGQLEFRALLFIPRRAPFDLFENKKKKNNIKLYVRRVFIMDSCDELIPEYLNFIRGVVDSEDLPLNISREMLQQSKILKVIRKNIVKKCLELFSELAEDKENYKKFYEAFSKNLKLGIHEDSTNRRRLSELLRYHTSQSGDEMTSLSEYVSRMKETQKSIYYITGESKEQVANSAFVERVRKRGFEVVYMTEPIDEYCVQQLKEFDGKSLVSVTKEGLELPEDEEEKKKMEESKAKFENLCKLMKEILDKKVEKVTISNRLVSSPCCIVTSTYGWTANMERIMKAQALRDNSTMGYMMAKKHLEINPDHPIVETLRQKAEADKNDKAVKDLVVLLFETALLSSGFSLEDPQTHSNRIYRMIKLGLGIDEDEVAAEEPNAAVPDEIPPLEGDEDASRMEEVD

Row | SMILES | IC50 [µM]
1 | Cc1ccccc1-n1c(S)nnc1-c1ccc(O)cc1O [(iv)] | < 10
2 | CCOC(=O)c1nnn(-c2ccc(O)cc2O)c1-c1ccc(F)cc1 [Example 2, 1-(2,4-Dihydroxy-phenyl)-5-(4-fluoro-phenyl)-1H-[1,2,3]triazole-4-carboxylic acid ethyl ester] | > 10
3 | Oc1ccc(-c2nnc(S)n2-c2cccc3ccccc23)c(O)c1 [(iii)] | < 10
4 | Oc1ccc(C2NN=C(Cc3ccccc3)S2)c(O)c1 (centres unmarked) [(ii)] | > 10
5 | CCOC(=O)c1nnn(-c2cc(Cl)c(O)cc2O)c1-c1ccc(F)cc1 [Example 3, 1-(5-Chloro-2,4-dihydroxy-phenyl)-5-(4-fluoro-phenyl)-1H-[1,2,3]triazole-4-carboxylic acid ethyl ester] | < 10

Results, then the compound that gave them:

Row | IC50 [µM] | SMILES
6 | > 10 | Oc1ccc(-c2csc(-c3c[nH]c4ccccc34)n2)c(O)c1 [(i)]
7 | > 10 | O=C(O)c1nnn(-c2ccc(O)cc2O)c1-c1ccc(F)cc1 [Example 1, 1-(2,4-Dihydroxy-phenyl)-5-(4-fluoro-phenyl)-1H-[1,2,3]triazole-4-carboxylic acid]
8 | < 10 | COc1ccc(OC)c(-n2c(S)nnc2-c2ccc(O)cc2O)c1 [(v)]
